The subject of series [1] is HCV replicon cells Huh 9B. The series can be described thus: HCV replicon luciferase assay. Type of series: cell-based. The settings on record: Hepatitis C virus; Huh 9B replicon cells, 72 h incubation, luciferase readout. As for the experimental part: (§1) HCV replicon cells Huh 9B (ReBlikon), containing the firefly luciferase—ubiquitin—neomycin phosphotransferase fusion protein and EMCV-IRES driven HCV polyprotein with cell culture adaptive mutations.
(§2) Cells were cultured at 37° C. in a 5% CO2 environment and split twice a week on seeding at 2×10E6 cells/flask on day 1 and 1×10E6 3 days later. Some 0.25 mg/ml G418 was added to the culture medium (125 ul per 25 ml) but not the assay medium.
(§3) The culture medium consisted of DMEM with […] glucose and glutamax (Gibco 61965-026) supplemented with 1× non-essential amino acids, penicillin (100 IU/ml) / streptomycin (100 μg/ml), FCS (10%, 50 ml) and 1 mg/ml G418 (Invitrogen cat no 10131-027) & 10% foetal calf serum.
(§4) A flask of cells was trypsinised and a cell count carried out. Cells were diluted to 100,000 cells/ml and 100 μl of this used to seed one opaque white 96-well plate (for the replicon assay) and one flat-bottomed clear plate (for the tox assay) for every seven compounds to be tested for IC50. Wells G12 and H12 were left empty in the clear plate as the blank. Plates were then incubated at 37° C. in a 5% CO2 environment for 24 h.
(§5) On the following day compound dilutions are made up in medium at twice their desired final concentration in a clear round bottomed plate. All dilutions have a final DMSO concentration of 1%.
Once the dilution plate had been made up, controls and compounds were transferred to the assay plate (containing the cells) at 100 μl/well in duplicate plates. Exception: in the white (replicon) plate, no compound was added to wells A1 and A2 and 100 μl of 1% DMSO was added to these instead. In the clear (Tox) plate, wells E12 & F12 only contained the DMSO control. Plates were then incubated at 37° C. with 5% CO2 for 72 h.
At the end of the incubation time, the cells in the white plate were harvested by washing with 200 μl/well of warm (37° C.) PBS and lysed with 20 μl cell culture lysis buffer (Promega). […]

Series [2] deals with HCV replicon cells Huh 9B. Description: Tox assay (methylene blue staining of replicon cells). Type of series: cell-based. The conditions noted are these: Huh 9B replicon cells, 72 h incubation, methylene blue absorbance at 620 nm. As to the method: as §1, §2, §3, §4, §5
Once the dilution plate had been made up, controls and compounds were transferred to the assay plate (containing the cells) at 100 μl/well in duplicate plates. Exception: in the white (replicon) plate, no compound was added to wells A1 and A2 and 100 μl of 1% DMSO was added to these instead. In the clear (Tox) plate, wells E12 & F12 only contained the DMSO control. […]
The clear plate was stained with 100 μl 0.5% methylene blue in 50% ethanol at RT for 1 h, followed by solvation of the absorbed methylene blue in 100 μl per well of 1% lauroylsarcosine. Absorbance of the plate was measured on a microplate spectrophotometer (Molecular Devices) and the absorbance for each concentration of compound expressed as a proportion of the relative DMSO control. […]
On the technique in general: A replicon is a self-replicating genome or part of one, used to study replication in cells.

From patent US20080114008A1, “Quinazoline Derivatives as Antiviral Agents” (ARROW THERAPEUTICS LIMITED, priority 2005, published 2008) come the findings set out here.

Usually IC50 stands for the point on the concentration scale where inhibition reaches its midpoint. A high value points to a need for much substance.

Where only a bound is given, the exact number is not on record here.

As to `c1nc(Nc2ccc(N3CCOCC3)cc2)c2cc(-c3ccc4ncnc(Nc5ccc(N6CCOCC6)cc5)c4c3)ccc2n1` [Example 1, N-(4-morpholinophenyl)-6-(4-(4-morpholinophenylamino)quinazolin-6-yl)quinazolin-4-amine], the IC50 in series [1] is less than 1000 nM. Moreover, in series [2], the “Replicon TD50” value is on record as “*** (>25 uM = ***)”.
For `c1ccc(Nc2ncnc3ccc(-c4ccc5ncnc(Nc6ccc(N7CCOCC7)cc6)c5c4)cc23)cc1` [Example 2, N*4*-(4-Morpholin-4-yl-phenyl)-N*4′*-phenyl-[6,6′]biquinazolinyl-4,4′-diamine] the same measures were less than 1000 nM and “*** (>25 uM = ***)”.
As to `c1nc(Nc2ccc(-n3cncn3)cc2)c2cc(-c3ccc4ncnc(Nc5ccc(-n6cncn6)cc5)c4c3)ccc2n1` [Example 3, N*4*,N*4′*-Bis-(4-[1,2,4]triazol-1-yl-phenyl)-[6,6′]biquinazolinyl-4,4′-diamine], in series [1], the IC50 is less than 1000 nM. Further, the “Replicon TD50” value in series [2] is “*** (>25 uM = ***)”.
